From US20110009342A1, “USES OF PDCD5 POLYPEPTIDE FOR TUMOR CHEMOTHERAPY AND ORGAN PROTECTION” (priority 2008, published 2011)
“Also recorded” adds a separate entry of the source.

Tests used:
K562 cells [1] = experiment: FITC/Annexin-V apoptosis by flow cytometry, IDR; assay type: cell-based; conditions: IDR 56 ng/mL; PDCD5 30 μg/mL where combined; 24 hours
Description: Methods: Cell staining with FITC/Annexin-V and cell apoptosis in vitro detection by flow cytometry: K562 cells (ATCC) were maintained in RPMI 1640 (Life Technologies, USA) supplemented with 10% FBS (Hyclone, USA), and were plated in 24-well culture dishes to a density of 2×10^5 cells/mL. rhPDCD5 protein was added with a final concentration of 7.5 μg/mL, 15 μg/mL and 30 μg/mL, respectively, in each well. Chemotherapeutic drug IDR was then added with a final concentration of 56 ng/mL and RPMI 1640 with 10% FBS was added to make the system to 1 mL. After 24 hours of co-culture, the cells were stained with FITC/Annexin-V (Baosai company) and apoptosis was detected by flow cytometry.

K562 cells [2] = experiment: clonogenic assay of agarose, IDR; assay type: cell-based; conditions: Homo sapiens, K562, 336 h; IDR 35 ng/mL; PDCD5 15-60 μg/mL where combined; 14 days; read-out: rate of clonogenic inhibition
Description: Clonogenic assay of agarose: Cell concentration was adjusted to 2.5×10^5 cell/mL. NS (control group) was prepared by taking 0.01 mL single-cell suspension, 0.5 mL 1% agarose, and 0.5 mL 2×RPMI 1640 medium containing 20% FCS, to bring the culture system to 1.0 mL. Test groups were prepared by taking 0.01 mL single-cell suspension and 0.5 mL 1% agarose, and taking IDR and PDCD5 diluted with 2×RPMI 1640 medium containing 20% FCS to an appropriated volume (having a final concentration of 35 ng/mL for IDR, and a final concentration of 15 μg/mL, 30 μg/mL, or 60 μg/mL for PDCD5 in each respective test group) and further diluted by adding 2×RPMI 1640 medium containing 20% FCS to 0.5 mL, and bringing the culture system to 1.0 mL. The culture system was added to 24-well plates, with 1 mL per well, and triplicate wells for each group. The plates were incubated in a CO2 incubator for 14 days until colonies formed. The clonogenic number was counted by microscope. A colony with more than 30 cells was counted as one positive colony.

K562 cell xenografts = K562 cell xenografts in nude mice, IDR; assay type: in vivo, BALB/c nude mice; conditions: IDR 70 μg
Description: Methods: BALB/c nude female mice (6-8 weeks of age) were used, and the mice were pretreated by i.p. injections of cyclophosphamide (Jiangsu Hengrui Medicine Co., Ltd.) once daily at a dose of 2 mg per mouse for two consecutive days. After two days of the cyclophosphamide injection, 1.5×10^7 K562 cells were injected subcutaneously into the single flanks of the mouse. The mice bearing K562 cell xenografts were divided randomly into five groups: Normal saline, irrelevant protein, rhPDCD5, IDR (idarubicin, Sigma Company), and IDR plus rhPDCD5. IDR treatments were given every other day i.p. The longest diameter and shortest diameter of tumors were measured by vernier caliper at the beginning of treatment and during the treatment. […] At the end of the experiment, the mice were killed and tumor masses were dissected and then weighed. […] Tumor volume was calculated using the following formula: πls^2/6, where 1=long diameter and s=short diameter.

mouse livers [3] = experiment: HE staining of liver paraffin sections of treated K562 xenograft mice; assay type: in vivo, BALB/c nu/nu mice
Description: (§1) Methods: BALB/c nu/nu female mice (6-8 weeks of age) were injected intraperitoneally with cyclophosphamide (CTX) (Jiangsu Hengrui Medicine Co., Ltd.), 2 mg/day per mouse for two days. One day after the second cyclophosphamide injection, 1.5×10^7 of K562 cells were injected subcutaneously into the single armpit of each of the mice. The mice bearing K562 cell xenografts were divided randomly into nine groups (n=6, i.e., six mice in each group) and each of the mice was i.p. treated, respectively, with normal saline, PDCD5, IDR (Sigma Corporation), and IDR plus PDCD5. […] At the end of the experiment, mice were killed. The mice were the same batch of that of Example 6. The excised liver of mice after treatment were fixed in 10% neutrally buffered formalin and then embedded in paraffin after dehydration. The paraffin embedding was cut and paraffin sections after HE staining were used to observe the necrosis of experimental mouse livers. Meanwhile, paraffin sections after Tunel (Roche Inc.) staining were used to observe the apoptosis of experimental mouse livers, and then the number of apoptotic cells was counted in five high-power microscope field for statistical analysis.

mouse livers [4] = experiment: Tunel staining of liver paraffin sections of treated K562 xenograft mice; assay type: in vivo, BALB/c nu/nu mice; conditions: five high power microscope fields
Description: Methods: BALB/c nu/nu female mice (6-8 weeks of age) were injected intraperitoneally with cyclophosphamide (CTX) (Jiangsu Hengrui Medicine Co., Ltd.), 2 mg/day per mouse for two days. One day after the second cyclophosphamide injection, 1.5×10^7 of K562 cells were injected subcutaneously into the single armpit of each of the mice. The mice bearing K562 cell xenografts were divided randomly into nine groups (n=6, i.e., six mice in each group) and each of the mice was i.p. treated, respectively, with normal saline, PDCD5, IDR (Sigma Corporation), and IDR plus PDCD5. Normal saline, PDCD5 (200 μg, 400 μg, or 800 μg, i.e., 10 mg/kg, 20 mg/kg, or 40 mg/kg, respectively), IDR (25 μg, i.e., 1.25 mg/kg) and IDR (25 μg, i.e., 1.25 mg/kg) plus PDCD5 (200 μg, 400 μg, or 800 μg, i.e., 10 mg/kg, 20 mg/kg, or 40 mg/kg, respectively) were used for intraperitoneal injection every other day for a total of five treatments. […] At the end of the experiment, mice were killed.
The excised liver of mice after treatment were fixed in 10% neutrally buffered formalin and then embedded in paraffin after dehydration. […] Meanwhile, paraffin sections after Tunel (Roche Inc.) staining were used to observe the apoptosis of experimental mouse livers, and then the number of apoptotic cells was counted in five high-power microscope field for statistical analysis.

mice hearts = experiment: HE staining of heart paraffin sections of treated K562 xenograft mice; assay type: in vivo, BALB/c nu/nu mice
Description: as §1, with “hearts” for “liver”, “myocardial congestion, hemorrhage, and myofiber degeneration” for “necrosis”, “heart” for “experimental mouse livers. Meanwhile, paraffin sections after Tunel (Roche Inc.) staining were used to observe the apoptosis of experimental mouse livers, and then the number of apoptotic cells was counted”, “mice.” for “five high-power microscope field for statistical analysis.”

mouse bone marrow = experiment: HE staining of bone marrow paraffin sections of treated K562 xenograft mice; assay type: in vivo, BALB/c nu/nu mice; conditions: combination compared with IDR alone
Description: Methods: Cyclophosphamide (CTX) (Jiangsu Hengrui Medicine Co., Ltd.) was used for intraperitoneal injection in BALB/c nu/nu female mice (6-8 weeks of age) and injection lasted for two days. One day after the second cyclophosphamide injection, 1.5×10^7 of K562 cells were injected subcutaneously into the single armpit of the mice. The mice bearing K562 cell xenografts were divided randomly into nine groups (n=6, i.e., six mice in each group) and i.p. treated with normal saline, PDCD5, IDR (Sigma Corporation), and IDR plus PDCD5. Normal saline, PDCD5 (200 μg, 400 μg, or 800 μg, i.e., 10 mg/kg, 20 mg/kg, or 40 mg/kg), […]., 1.25 mg/kg) and […]., 1.25 mg/kg) plus PDCD5 (200 μg, 400 μg, or 800 μg, i.e., 10 mg/kg, 20 mg/kg, or 40 mg/kg) were used for intraperitoneal injection and were given every other day for a total of five treatments. […] At the end of the experiment, mice were killed. The mice were the same batch of that in Example 6. The excised bone of mice after treatment were fixed in 10% neutrally buffered formalin and then embedded in paraffin after dehydration. The paraffin embedding was cut and paraffin sections after HE staining were used to count the number of nucleated cells of each group in mouse bone marrow paraffin sections.

HEK293 cells [5] = experiment: PDCD5-FITC internalization, flow cytometry; assay type: cell-based; conditions: incubated at 4° C.
Description: Methods: HEK293 and U937 cells (ATCC) were maintained in RPMI 1640 (Life Technologies, USA), supplemented with 10% heat-inactivated fetal bovine serum (Hyclone, USA), penicillin (100 units/mL), streptomycin (100 μg/mL), and L-glutamine (2 mM). The HEK293 cells were adherent cells with expression of caveolin-1, while the U937 cells were suspension cells without expression of caveolin-1.
The purified rhPDCD5 protein from Example 2 was suspended into 0.025 M sodium carbonate-sodium bicarbonate buffer (pH 9.0). The rhPDCD5 protein was labeled (covalent) by fluorescein isothiocyanate (FITC, Sigma-Aldrich) as described by Masseyeff R. F. et al. (Methods Immunology Analysis 3, 237-238, 1993), and then purified by Sephadex G25 to remove free FITC to obtain PDCD5-FITC protein.
Results: Performance of Flow Cytometry: Quantification of internalized FITC-labeled PDCD5 recombinant protein: HEK293cells were plated in 24-well plates to about 70% confluence, […] FIG. 3. After incubation, the cells were then washed twice, trypsinized, centrifuged, again washed twice with PBS, and finally analyzed by flow cytometry using a FACSCalibur flow cytometer (BD Biosciences).

U937 cells = experiment: PDCD5-FITC internalization, flow cytometry; assay type: cell-based; conditions: incubated at 4° C.
HEK293 cells [6] = experiment: intracellular localization of FITC-labeled PDCD5, fluorescence microscopy; assay type: cell-based; conditions: 20 μg/mL, 5 hours
Description: Analysis of intracellular localization of the FITC-labeled recombinant PDCD5 protein by fluorescence microscopy: HEK293 cells were grown in specialized glass-bottom microwell dishes (MatTek Corp., USA) to about 50% confluence and washed, and then fresh 10% fetal bovine serum medium and PDCD5-FITC was added to a final concentration of 20 μg/mL. At each time point shown in the drawing, the cells were rinsed twice with PBS buffer and fixed with 2% paraformaldehyde in PBS for 15 min at room temperature. Cells were imaged using a TCS-SP laser-scanning confocal microscope with a 40× or 63×oil immersion lenses (Leica Microsystems, Mannheim, Germany). Nuclei were visualized by Hoechst 33342 (red regions, a pseudocolor).

[7] = no PDCD5, Imatinib 1.2 mg oral or IDR 25 μg i.p., n=6

| Molecule | cell apoptosis rate (K562 cells [1]) | inhibition at 0.035 µg/mL (K562 cells [2]) | tumor inhibitory rate (K562 cell xenografts; PDCD5 local (intratumoral) injection, 60 μg where combined) | tumor inhibitory rate (K562 cell xenografts; treatment started at average tumor volume 57.7 mm^3, PDCD5 i.p. 800 μg where combined) | sinusoidal expansion, congestive hemorrhage and necrosis of liver cells surrounding sinusoid (in words) (mouse livers [3]; HE staining) | Sinusoidal expansion, congestive hemorrhage and necrosis of liver cells surrounding sinusoid: mice graded + (mouse livers [3]; [7]) | Sinusoidal expansion, congestive hemorrhage and necrosis of liver cells surrounding sinusoid: mice graded ++ (mouse livers [3]; [7]) | Sinusoidal expansion, congestive hemorrhage and necrosis of liver cells surrounding sinusoid: mice graded +/− (mouse livers [3]; [7]) | Sinusoidal expansion, congestive hemorrhage and necrosis of liver cells surrounding sinusoid: mice graded − (mouse livers [3]; [7]) | number of apoptotic cells in mice liver, IDR alone vs IDR combined with PDCD5 (mouse livers [4]) | myocardial hemorrhage and congestion, and myofiber fracture/degeneration (in words) (mice hearts; HE staining) | Myocardial hemorrhage and congestion: mice graded + (mice hearts; [7]) | Myocardial hemorrhage and congestion: mice graded ++ (mice hearts; [7]) | Myocardial hemorrhage and congestion: mice graded − (mice hearts; [7]) | Myofiber degeneration: mice graded + (mice hearts; [7]) | Myofiber degeneration: mice graded − (mice hearts; [7]) | number of mouse bone marrow nucleated cells (mouse bone marrow) | internalization (uptake) at 4° C. (HEK293 cells [5]) | internalization (uptake) at 4° C. (U937 cells) | intracellular localization of fluorescence (HEK293 cells [6]) |
| --- | --- | --- | --- | --- | --- | --- | --- | --- | --- | --- | --- | --- | --- | --- | --- | --- | --- | --- | --- | --- |
| CC(=O)[C@]1(O)Cc2c(O)c3c(c(O)c2[C@@H](O[C@H]2C[C@H](N)[C@H](O)[C@H](C)O2)C1)C(=O)c1ccccc1C3=O [IDR, idarubicin] | 22.57% | 35.5% | 60.27% | 62.79% | significant | 3 number of mice | 3 number of mice | 0 number of mice | 0 number of mice | significantly higher | significant | 3 number of mice | 3 number of mice | 0 number of mice | 3 number of mice | 3 number of mice | decreased |  |  |  |
| PDCD5-FITC: rhPDCD5 protein covalently labeled by fluorescein isothiocyanate (conjugate, UniProt O14737 2-125, looked up, FITC label, rhPDCD5 protein covalently labeled by fluorescein isothiocyanate) Programmed cell death protein …: ADEELEALRRQRLAELQAKHGDPGDAAQQEAKHREAEMRNSILAQVLDQSARARLSNLALVKPEKTKAVENYLIQMARYGQLSEKVSEQGLIEILKKVSQQTEKTTTVKFNRRKVMDSDEDDDY |  |  |  |  |  |  |  |  |  |  |  |  |  |  |  |  |  | blocked; also recorded: inhibited | blocked; also recorded: inhibited | localized to discrete compartments in the cytoplasm |
